Measurements: PubChem BioAssay AID328 (DTP/NCI, 2004)
“And” between values parts separate entries of the source, which are not always exact repeats. Equal values may be shown once. Toxic doses and inconclusive results are not listed.

Tested on: BDF1 mice, P388 leukemia ip, median survival T/C
Experiment: NCI In Vivo Anticancer Drug Screen. Data for tumor model P388 Leukemia (intraperitoneal) in B6D2F1 (BDF1) mice
Conditions: endpoint: median survival time, higher = longer survival
How it was run: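 Steps: implant the tumour, treat one group with compound and another with vehicle, record survival, then divide treated by control.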

[1] = dose: 100.0 mg/kg/injection, schedule: Q04DX003 (ip), vehicle: saline
[2] = dose: 200.0 mg/kg/injection, schedule: Q04DX003 (ip), vehicle: saline
[3] = dose: 400.0 mg/kg/injection, schedule: Q04DX003 (ip), vehicle: saline
[4] = dose: 100.0 mg/kg/injection, schedule: Q01DX009 (ip), vehicle: saline with Tween-80
[5] = dose: 200.0 mg/kg/injection, schedule: Q01DX009 (ip), vehicle: saline with Tween-80
[6] = dose: 50.0 mg/kg/injection, schedule: Q01DX009 (ip), vehicle: saline with Tween-80

Structure (SMILES): O=[N+]([O-])c1ccccc1N/N=C\c1c(Cl)n(-c2ccccc2)c2ccccc12
- T/C (dose: 100.0 mg/kg/injection, schedule: Q04DX002 (ip), vehicle: Klucel (hydroxypropylcellulose) (HPC)): 90 % of control
- T/C (dose: 200.0 mg/kg/injection, schedule: Q04DX002 (ip), vehicle: Klucel (hydroxypropylcellulose) (HPC)): 99 % of control
- T/C (dose: 400.0 mg/kg/injection, schedule: Q04DX002 (ip), vehicle: Klucel (hydroxypropylcellulose) (HPC)): 115 % of control

Structure (SMILES): C1CN(CC2COC(CN3CCOCC3)CO2)CCO1 (stereo not given)
- T/C [1]: 114 % of control
- T/C [2]: 104 % of control
- T/C [3]: 104 % of control

Structure (SMILES): O=C1Cc2ccccc21
- T/C [4]: 96 % of control
- T/C (dose: 100.0 mg/kg/injection, schedule: Q04DX003 (ip), vehicle: saline with Tween-80): 100 % of control and 110 % of control
- T/C (dose: 177.0 mg/kg/injection, schedule: Q04DX003 (ip), vehicle: saline with Tween-80): 100 % of control
- T/C [5]: 107 % of control
- T/C (dose: 200.0 mg/kg/injection, schedule: Q04DX003 (ip), vehicle: saline with Tween-80): 110 % of control
- T/C (dose: 266.0 mg/kg/injection, schedule: Q04DX003 (ip), vehicle: saline with Tween-80): 104 % of control and 109 % of control
- T/C (dose: 600.0 mg/kg/injection, schedule: Q04DX003 (ip), vehicle: saline with Tween-80): 104 % of control and 122 % of control

Structure (SMILES): O=C(O)c1cc(C(=O)O)cc([N+](=O)[O-])c1
- T/C (dose: 25.0 mg/kg/injection, schedule: Q01DX009 (ip), vehicle: saline with Tween-80): 100 % of control
- T/C [6]: 100 % of control
- T/C [4]: 90 % of control

Structure (SMILES): CCCCCCCCCCCCCCCCNC(=S)Nc1ccc(C(=O)O)cc1
- T/C (dose: 50.0 mg/kg/injection, schedule: Q01DX001 (ip), vehicle: Klucel (hydroxypropylcellulose) (HPC)): 113 % of control
- T/C (dose: 100.0 mg/kg/injection, schedule: Q01DX001 (ip), vehicle: Klucel (hydroxypropylcellulose) (HPC)): 109 % of control
- T/C (dose: 200.0 mg/kg/injection, schedule: Q01DX001 (ip), vehicle: Klucel (hydroxypropylcellulose) (HPC)): 100 % of control

Structure (SMILES): Nc1nc(SCc2ccc([N+](=O)[O-])cc2)c2[nH]cnc2n1
- T/C (dose: 100.0 mg/kg/injection, schedule: Q04DX003 (ip), vehicle: saline sonified): 110 % of control
- T/C (dose: 200.0 mg/kg/injection, schedule: Q04DX003 (ip), vehicle: saline sonified): 110 % of control
- T/C (dose: 400.0 mg/kg/injection, schedule: Q04DX003 (ip), vehicle: saline sonified): 100 % of control

Structure (SMILES): COc1ccc(C(=O)CC(C#N)c2ccc(OC)cc2)cc1 (stereo not given)
- T/C [6]: 106 % of control
- T/C [4]: 106 % of control
- T/C [5]: 101 % of control

Structure (SMILES): COC(=O)CCCCCCCC(=O)OCC#CC#CCOC(=O)CCCCCCCC(=O)OC
- T/C (dose: 100.0 mg/kg/injection, schedule: Q04DX003 (ip), vehicle: Klucel (hydroxypropylcellulose) (HPC)): 109 % of control
- T/C (dose: 200.0 mg/kg/injection, schedule: Q04DX003 (ip), vehicle: Klucel (hydroxypropylcellulose) (HPC)): 104 % of control
- T/C (dose: 400.0 mg/kg/injection, schedule: Q04DX003 (ip), vehicle: Klucel (hydroxypropylcellulose) (HPC)): 104 % of control

Structure (SMILES): CS(=O)(=O)Nc1ccc(Nc2c3ccccc3nc3ccccc23)cc1
- T/C (dose: 15.0 mg/kg/injection, schedule: Q04DX003 (ip), vehicle: Klucel (hydroxypropylcellulose) (HPC)): 109 % of control
- T/C (dose: 25.0 mg/kg/injection, schedule: Q01DX009 (ip), vehicle: Klucel (hydroxypropylcellulose) (HPC)): 95 % of control
- T/C (dose: 50.0 mg/kg/injection, schedule: Q01DX009 (ip), vehicle: Klucel (hydroxypropylcellulose) (HPC)): 120 % of control
- T/C (dose: 50.0 mg/kg/injection, schedule: Q04DX003 (ip), vehicle: Klucel (hydroxypropylcellulose) (HPC)): 122 % of control
- T/C [1]: 200 % of control and 209 % of control
- T/C (dose: 150.0 mg/kg/injection, schedule: Q04DX003 (ip), vehicle: Klucel (hydroxypropylcellulose) (HPC)): 159 % of control
- T/C (dose: 175.0 mg/kg/injection, schedule: Q04DX003 (ip), vehicle: saline): 237 % of control
- T/C [2]: 204 % of control and 223 % of control
- T/C (dose: 265.0 mg/kg/injection, schedule: Q04DX003 (ip), vehicle: saline): 250 % of control
- T/C [3]: 272 % of control and 95 % of control and 100 % of control

Structure (SMILES): O=C(c1ccncc1)c1c(Cc2ccccc2)ccc2ccccc12
- T/C [6]: 92 % of control
- T/C [4]: 96 % of control
- T/C [5]: 90 % of control
- T/C (dose: 400.0 mg/kg/injection, schedule: Q01DX009 (ip), vehicle: saline with Tween-80): 92 % of control

Structure (SMILES): CCCCOCNc1ncccn1
- T/C [6]: 100 % of control and 105 % of control
- T/C [4]: 98 % of control and 112 % of control
- T/C [5]: 100 % of control
